Legend:
bladder detrusor = test: Contraction of isolated rat bladder strip specimens (Magnus system), KCl-induced contraction; assay type: cell-based; conditions: for Contractility of the bladder detrusor according to the compound concentration treated: rat bladder strip
Experimental: Rats were anesthetized with pentobarbital, followed by abdominal incision to remove the bladders and the urethras. The bladder bodies were cut in the longitudinal direction to prepare strip specimens with a size of about 10×3 mm. Additionally, each of the urethras was also cut in the longitudinal direction to prepare specimens with a size of about 10×3 mm. The prepared specimens were suspended in Krebs buffer (37° C., 5 mL), which was aerated with a mixed gas of 95% O2 and 5% CO2. The tension values of the specimens were measured using a Magnus system equipped with an isometric transducer and an amplifier, and the measured values were recorded on a computer via a data collection system.
The specimens were suspended with a load of about 0.5 g. More than 1 hr later, potassium chloride (100 mmol/L) was added and the maximal contraction response was observed. After washing with Krebs buffer, the specimens were suspended with a load of about 0.5 g for stabilization. A potassium chloride solution (7.5 mmol/L) was added to induce the contraction of the specimens. After the contraction-inducing response was stabilized, the test compound was added in a cumulative manner and the response was observed before and after the treatment with the drug.

[1] = test system: underactive bladder models; test: Residual urinary volumes and bladder capacities in underactive bladder models (cystometry); assay type: in vivo, rat; conditions: 0.01 mg/kg, oral, underactive bladder model rats
Experimental: The underactive bladder models were constructed in accordance with the following procedure. Female Wistar rats (8 to 9 weeks age) were anesthetized by intraperitoneal administration of Somnopentyl (40 mg/kg), followed by dorsal shaving, and fixed in abdominal positions. Each of the dorsal areas was disinfected with chlorhexidine gluconate (5% hibitane liquid). The waist area was median-incised to expose the spinal column. After excision of the fifth lumbar spinous process, a silicone rubber was inserted into the sixth lumbar direction from a hole bored by a mini drill. For the purpose of avoiding infections, after completion of the surgical operation, benzylpenicillin potassium (25000 U/0.25 mL/body) was added dropwise to the incised area. The muscle and skin of the incised area were sutured with silk threads, and iodine tincture was applied to the sutured area. After the operation, maintenance of voiding was carried out by manual compressions three times daily. For the purpose of avoiding infections, potassium penicillin G (1.25 units/body) was administered subcutaneously. More than 5 days prior to cystometric evaluation, a catheter for cystometrogram was indwelled in the bladder. Anesthesia with sodium pentobarbital (40 mg/kg by intraperitoneal administration) and incision along the midline of the abdomen were carried out, followed by incision of the apex of the bladder. A catheter for cystometrogram filled with physiological saline was inserted into the bladder from a hole of the apical area, and fixed by ligation using silk suture threads. […]
The rats were anesthetized with ether and housed in a Bollmann cage 2 weeks after the construction of the models. To the front end of each of the bladder catheters, a pressure transducer via a three-way cock was connected, and the intravesical pressure was recorded using a strain pressure amplifier•recorder. […]
[…] After 1 hr, physiological saline was perfused into the bladder at a flow rate of 2 mL/h and voiding parameters (bladder capacity and residual urinary volume) were measured. […] Voiding parameters were calculated for each cystometry. […]

[2] = test system: spontaneously hypertensive rats; test: Blood pressure and heart rate measurement in hypertensive rats; assay type: in vivo, rat; conditions: continuous intravenous administration for 30 min
Experimental: The blood pressures and heart rates of male spontaneously hypertensive rats were measured. On the day of measurement, indwelling of catheters for blood pressure•heart rate measurement and subject substance administration was carried out under anesthesia with ether. The back of the neck of each rat was incised, a feeding catheter (Atom Medical Corporation) filled with heparinized physiological saline was introduced from the back of the neck; the catheter was inserted into the common carotid artery and internal jugular vein; and the surgical incision was closed. The measurements were conducted in a Bollmann cage under the conscious state and evaluations were carried out after confirming that the individual parameters were stabilized. After confirming the stabilization of blood pressure and heart rate, the test compound was continuously administered intravenously at a flow rate of 5 mL/kg/h for 30 min.
The catheter drawn from the back of the neck was connected to a pressure transducer (DX-200, NIHON KOHDEN CORP.), and the blood pressures and heart rates were measured using a blood pressure amplifier (Gould instrument). The blood pressures and heart rates were recorded on recording paper using a recorder (LINEARCORDER WR3320, GRAPHTEC). The blood pressures and heart rates were converted into values on the recording paper before administration and 2.5, 5, 10, 15, 30, 45 and 60 min after administration. For each individual, rates of increase and decrease in the parameters were evaluated relative to the value before administration (value at 0 min).

[3] = Systemic clearance after intravenous administration; assay type: in vivo; conditions: plasma, cynomolgus monkey, 0.001 mg/mL/kg
Experimental: Equimolar sodium hydroxide and injectable distilled water were added to each of the test compounds to prepare a 1 mg/mL aqueous solution. The aqueous solution was diluted with physiological saline until the concentration reached 0.001 mg/mL and was rapidly administered at a dose of 0.001 mg/mL/kg to cynomolgus monkey through the cephalic vein. Via heparinized syringes, 2 min, 5 min, 15 min, 30 min, 1 hr, 2 hr, 4 hr, 6 hr, 8 hr and 24 hr after administration, blood was drawn from the cephalic vein (non-administered sites). After centrifugation, blood plasma was sampled and stored at −80° C. before pretreatment. The blood plasma was pretreated by mixing with acetonitrile and centrifuging to remove proteins followed by measurement by LC/MS/MS. Changes of concentration in blood plasma was analyzed using WinNonlin4.0.1 to evaluate the systemic clearance of the test compound.

## C[C@@](O)(C/C=C/[C@H]1CCC(=O)[C@@H]1CCSc1nc(C(=O)O)cs1)CCC(F)=C(F)F [Compound 17, 2-[(2-{(1R,5R)-2-oxo-5-[(1E,4S)-7,8,8-trifluoro-4-hydroxy-4-methyl-1,7-octadien-1-yl]cyclopentyl}ethyl)thio]-1,3-thiazole-4-carboxylic acid]
Bladder detrusor; 0 nmol/L
  Contractility of the bladder detrusor according to the compound concentration treated: 3 % of 7.5 mmol/L KCl
Bladder detrusor; 1 nmol/L
  Contractility of the bladder detrusor according to the compound concentration treated: −2 % of 7.5 mmol/L KCl
Bladder detrusor; 10 nmol/L
  Contractility of the bladder detrusor according to the compound concentration treated: 23 % of 7.5 mmol/L KCl
Bladder detrusor; 100 nmol/L
  Contractility of the bladder detrusor according to the compound concentration treated: 100 % of 7.5 mmol/L KCl
Bladder detrusor; 1 μmol/L
  Contractility of the bladder detrusor according to the compound concentration treated: 180 % of 7.5 mmol/L KCl
Bladder detrusor; 10 μmol/L
  Contractility of the bladder detrusor according to the compound concentration treated: 259 % of 7.5 mmol/L KCl
Bladder detrusor; summary in words of Table 1
  effect on the bladder detrusor: contracted the bladder detrusor
[1]; versus normal group
  bladder capacity: no effect
[1]; versus vehicle group
  residual urinary volume: significant reduction
[2]
  effect on the blood pressure: no effect
[3]
  clearance: 3.6 mL/min/kg

Source: patent publication US9150528B2, “Compound having detrusor muscle-contracting activity and urethral sphincter muscle-relaxing activity” (ONO PHARMACEUTICAL CO., LTD., priority 2009, dated 2015)
